Where a name gives a salt, the structure may show the parent alone. Read-outs that look alike come from different tables or passages of the source. Values belong to the molecule of their own block, whether it stands above or below them.
Experiments:
nausea and emesis = conditions: cited from earlier work
[1] = healthy test persons, single dose 0.15 mg/kg i.v., cited from earlier work
[2] = after oral administration; cited from earlier work
[3] = humans; cited from earlier work
[4] = diffusion cell, cited from earlier work
[5] = cited from earlier work
[6] = in vitro skin permeation through the skin of a nude mouse
Source text: All employed solutions are saturated.
The given values are average values which were obtained with saturated solutions.
Saturated solutions were used to achieve the respective maximal thermodynamic activities.

Structure (SMILES): Cc1nccn1CC1CCc2c(c3ccccc3n2C)C1=O (racemic) [ondansetron, (±)-1,2,3,9-tetrahydro-9-methy-3-[(2-methyl-1H-imidazole-1-yl)methyl]-4H-carbazol-4-one monohydrochloride]
treatment of nausea and emesis (nausea and emesis; patients treated with anti-tumor drugs such as cisplatin derivatives): reliable in treating nausea and emesis
side effects (nausea and emesis; patients): headaches, diarrhea, and temporary abnormalities in liver function tests
average half-life ([1]; age group 19-40 years): 3.5 h
peak concentration in plasma ([1]; age group 19-40 years): 102 ng/mL
plasma clearance ([1]; age group 19-40 years): 0.38 L/h/kg
average half-life ([1]; age group 61-74 years): 4.7 h
plasma clearance ([1]; age group 61-74 years): 0.32 L/h/kg
average half-life ([1]; age group ≧75 years): 5.5 h
plasma clearance ([1]; age group ≧75 years): 0.26 L/h/kg
bioavailability [2]: approximately 50%
part of a radioactively marked dose found in urine [3]: approximately 5%

Structure (SMILES): Cc1cccc(CN2CCN(C)C[C@@H](NC(=O)c3n[nH]c4ccccc34)C2)c1.Cl.Cl [(R)-(−)-N-(1-methyl-4-(3-methylbenzyl)hexahydro-1H-1,4-diazepin-6-yl)-1H-indazole-3-carboxamided.2HCl]
flow of the active agent through the human epidermis ([4]; adhesive matrix of styrene-butadiene copolymer used as a comparison): 0.8 μg/cm^2/h
flow of the active agent through the human epidermis ([4]; two-phase matrix with 4 % active agent, calcium silicate, dimethyl siloxane adhesive (WO 9407468)): 17.1 μg/cm^2/h

amount permeated relative to a saturated aqueous solution ([6]; mixture of ethanol, tea tree oil and water vs saturated aqueous solution, after 24 hours): approximately 12 times
permeation through the skin (FIG. 1) ([6]; saturated solution in ethanol): best permeation
permeation through the skin (FIG. 1) ([6]; saturated solution in tea tree oil alone): insufficient permeation
amount permeated ([6]; solution in a mixture of ethanol, tea tree oil and water, after 24 hours): approximately 1.2 mg per cm^2
flow of the active agent (FIG. 2) ([6]; solution in a mixture of ethanol, tea tree oil and water, first 4 to 5 hours): extremely strong increase
Structure (SMILES): Cc1nccn1CC1CCc2c(c3ccccc3n2C)C1=O (centres unmarked) [ondansetron hydrochloride]
time until peak concentrations are present in the plasma ([5]; after oral administration): Approximately 1 hour
average elimination half-life ([5]; healthy test persons): 3.5 h
average elimination half-life ([5]; older patients): approximately 7.9 hours
permeation compared with the free base ([6]; in combination with the described solvent mixture): permeates better than ondansetron in the form of the free, non-ionic base
permeation through the skin (FIG. 2) ([6]; saturated aqueous solution): the results do not differ from those which were obtained using pure tea tree oil
